Results from US20040247525A1, “Brain progenitor cell-based assay, and related methods and compositions” (priority 2003, published 2004).
“Also recorded” adds a separate entry of the source. Read-outs that look alike come from different tables or passages of the source.

What was measured:
129/SvEv mice = test: Novelty-suppressed feeding test (NSF); format: in vivo, mouse
Protocol: Haloperidol, an antipsychotic that antagonizes D2 dopamine receptors, was used as a negative control because it is devoid of antidepressant activity in humans. NSF performance was assessed after either 5 or 28 days of oral drug administration.

[1] = tested on: BrdU-positive cells in the dentate gyrus of 5-HT1A receptor KO mice; test: BrdU labeling of cell proliferation in the dentate gyrus of 5-HT1A knockout mice; settings: for BrdU-labeled cells in the SGZ (cell proliferation): 8-OH-DPAT chronic (28 days, 1 mg/kg/day mini pumps), vs sham, 1 mg/kg/day; for BrdU-positive cells surviving 28 days after BrdU injection: 5-HT1A KO mice, chronic treatment, sacrificed 28 days after BrdU
Protocol: Knockout and wild-type 129/SvEv age-matched adult male mice (12-20 weeks) derived from heterozygote crossings (Phillips et al., 1999) were used in all experiments that included 5-HT1A knockout mice. […] Mice were housed 4-5 per cage in a 12-h (06:00-18:00) light-dark colony room at 22° C. with freely available food and water.
To assess the effect of antidepressant or X-irradiation treatments on the number of BrdU-positive cells, mice were administered BrdU (4×75 mg/kg i.p., dissolved in saline, every 2 hr; Roche Diagnostic, Indianapolis, Ind.) and sacrificed 24 hr after the last BrdU injection (FIG. 2A, 3B, 5C-D). To determine cell survival and phenotype after the various antidepressant treatments, fluoxetine, imipramine and vehicle-treated mice were allowed to survive for 28 days after the last BrdU injection (FIG. 2C-D, 3C). After deep anesthesia with a mixture of ketamine/xylazine (100 mg/kg and 7 mg/kg respectively),, mice were transcardially perfused (cold saline for 2 min, followed by 4% cold paraformaldehyde/0.1 M phosphate buffer for 5 min) and brains were collected for immunohistochemistry. All brains were post-fixed overnight in 4% paraformaldehyde at 4° C., then cryoprotected in 30% sucrose and stored at 4° C. Serial sections of the brains were cut (35 μm sections) through the entire hippocampus (plates 41-61; Franklin and Paxinos, 1997) on a cryostat and stored in PBS with 0.1% NaN3. For DAB staining, sections were slide-mounted and boiled in citric acid, pH 6.0, for 5 min, rinsed with PBS, and treated with 0.01% trypsin in Tris/CaC12 for 10 min. Brain sections were incubated for 30 min with 2N HCl and blocked with 5% NGS (Jackson ImmunoResearch, West Grove, Pa.). Sections were then incubated over night at room temperature with anti-mouse BrdU (1:100; Becton-Dickinson). After washing with PBS, sections were incubated for 1 hr with secondary antibody (1:200 biotinylated goat anti-mouse; Sigma-Aldrich, St. Louis, Mo.) followed by amplification with an avidin-biotin complex (Vector Laboratories). The staining was visualized with DAB (Sigma-Aldrich, St. Louis, Mo.). For fluorescent double-labeling, the DNA-denaturation procedure consisted of the following steps: 2 hr incubation in 50% formamide-2×SSC at 65° C., 5 min rinse in 2×SSC, 30 min incubation in 2N HCl at 37° C., and 10 min rinse in 0.1 M boric acid, pH 8.5. Sections were then incubated in TBS-0.1% Triton X-100 (Tx)-5% normal donkey serum (NDS) for 30 min, followed by anti-rat BrdU primary antibody (1:100; Accurate Westbury, N.Y. or Serotec, Oxford, UK) in TBS/NDS/Tx for 24 hrs at 4° C. in combination with either a mouse monoclonal antibody to NeuN (1:500; Chemicon, Temecula, Calif.) or a rabbit polyclonal antibody to GFAP (1:800; DAKO, Carpinteria, Calif.). The fluorescent secondary antibodies used were biotin-conjugated donkey anti-rat (1:200) plus streptavidin Cy2 (1:200), donkey anti-mouse. Cy3 (1:500), or donkey anti-rabbit Cy3 (1:500) (Jackson ImmunoResearch, West Grove, Pa.). Fluorescent images were taken with a Bio-Rad MRC 1000 confocal laser scanning system coupled to a Zeiss Axiovert 100 inverted microscope. For each image acquisition, a Kalman average of five frames was used. For quantification of BrdU/NeuN or BrdU/GFAP double-labeled cells, at least 50 BrdU-positive cells per animal were analyzed using Z-plane sectioning (1 μm steps).
In this set of experiments, wild type and 5-HT1A receptor KO mice were injected with BrdU following 27 days of treatment with fluoxetine, imipramine, or vehicle. To assess the effect of AD treatment on cell proliferation, one group of mice was sacrificed 24 hours after BrdU injection and sections containing the dentate gyrus were analyzed by immunohistochemistry.

[2] = tested on: 5-HT1A receptor knockout (KO) mice; test: Novelty-suppressed feeding test (NSF) in 5-HT1A knockout mice; format: in vivo, mouse
Protocol: The Novelty-suppressed feeding test was carried out during a 5-min period as previously described (Santarelli et al., 2001). Briefly, the testing apparatus consisted of a plastic box, 50×50×20 cm. The floor was covered with approximately 2 cm of wooden bedding. Twenty-four hours prior to behavioral testing, all food was removed from the home cage. At the time of testing, a single pellet of food (regular chow) was placed on a white paper platform positioned in the center of the box. An animal was placed in a corner of the maze and a stopwatch was immediately started. The measure of interest (chewing) was scored when the mouse was sitting on its haunches and biting with the use of forepaws. Immediately after this test, mice were transferred to their home cage and the amount of food consumed in 5 min was measured (home cage food consumption). In knockout experiments, mice were genotyped after behavioral testing to remove the possibility of investigator bias. Mice were always tested during the light period.
Among the 14 known 5-HT receptor subtypes, the 5-HT1A receptor has been most consistently implicated in the modulation of mood and anxiety-related behaviors (Gross et al., 2000; Sargent et al., 2000). To determine whether this receptor is required to mediate the effects of serotonin- and noradrenaline-enhancing ADs, we compared the effects of these drugs in wild type (WT) mice and in mice lacking the 5-HT1A receptor (5-HT1A receptor knockout (KO) mice). WT and KO mice were treated with fluoxetine, imipramine, desipramine, or vehicle for a period of 28 days before being tested in the NSF paradigm.

[3] = tested on: BrdU-positive cells in the dentate gyrus; test: BrdU labeling of cell proliferation and neurogenesis in the dentate gyrus; format: in vivo, mouse; settings: for BrdU-labeled cells in the SGZ (cell proliferation): 8-OH-DPAT chronic (28 days, 1 mg/kg/day mini pumps), WT (+/+) mice, vs sham, 1 mg/kg/day; for BrdU-positive cells surviving 28 days after BrdU injection: wild type mice, chronic treatment, sacrificed 28 days after BrdU
[4] = mouse, in vivo, po
Protocol: Fluoxetine (Eli Lilly, Indianapolis, Ind.), Imipramine (Sigma-Aldrich, St. Louis, Mo.), Desipramine (Sigma-Aldrich, St. Louis, Mo.) and Haloperidol (Sigma-Aldrich, St. Louis, Mo.) were dissolved in tap water at a concentration of 80, 160, 160, and 8 mg/L, respectively. These concentration were established based on the average drinking amount and average weight of the mice used in the study to achieve a final dose of 10 (fluoxetine), 20 (imipramine and desipramine) and 1 (haloperidol) mg/kg/day. […] Vehicle animals received tap water. 8-hydroxy-2-(di-n-propylamino) tetralin (8-OH-DPAT, Sigma-Aldrich, St. Louis, Mo.) was dissolved in sterile saline (0.9% NaCl) at a concentration of 4.5 mg/ml, and delivered through Alzet osmotic mini-pumps (model 2004, Alzet, Cupertino, Calif.) implanted subcutaneously 28 days prior to behavioral testing. The final average dose delivered was 1 mg/kg/day. Sham mice were implanted with mini-pumps containing sterile saline.

[5] = tested on: dentate gyrus (DG) of the rat hippocampus; settings: Malberg et al., 2000; cited from earlier work
BALB/c mice = test: Chronic unpredictable stress paradigm (CUS); format: in vivo, mouse; settings: for state of the coat (fur) in CUS: fluoxetine 10 mg/kg/day i.p. from week 3, end of fifth week; for weight loss induced by stress in CUS / grooming latency in CUS: fluoxetine 10 mg/kg/day i.p.; for weight loss induced by stress in CUS: data not shown; for grooming latency in CUS: sixth week, after sucrose solution
Protocol: The stress regimen used is a variant of the chronic mild stress procedures described by Willner et al. (Willner et al., 1992). Mice were subjected to various and repeated unpredictable stressors for a period of five weeks (Griebel et al., 2002). The different stressors used were: alterations of the bedding (repeated sawdust changing, removal of sawdust, damp sawdust, substitution of sawdust with 37° C. water); cage tilting (45°); predator sounds (15 min.); cage shift (mice were positioned in the empty cage of another male); light to dark or dark to light shifts (four light/dark successions of 30 min every 24 hours); reversal of the light/dark cycle. The fluoxetine treatment (10 mg/kg/day, i.p.) started at the beginning of the third week. The state of the coat was assessed at the end of the stress regimen (end of fifth week). The total score resulted from the sum of the score of seven different body parts: head, neck, dorsal coat, ventral coat, tail, forepaws and the hindpaws. A score of 0 was given for a well-groomed coat and 1 for a spoiled coat (see Griebel, 2002). The grooming latency was assessed at the end of the sixth week. This test consisted in squirting 200 μl of a 10% sucrose solution on the mouse's snout. The latency to start grooming was then recorded.
The CUS protocol consists of the sequential application of a number of stressors, presented in a varied and unpredictable manner during 5 weeks. The continued application of these stressors produces a deterioration in the state of the coat, an impaired grooming response, and weight loss (Griebel et al., 2002; Willner et al., 1992). ADs such as fluoxetine can reverse these stress-induced effects after chronic, but not acute, administration (Griebel et al., 2002; Willner et al., 1992).
Sham and irradiated mice were subjected to five weeks of CUS, beginning two weeks after the final X-ray dose, and half of the animals in each group were administered fluoxetine (10 mg/kg/day, i.p.) from weeks 3-6. The state of each animal's fur was assessed at the end of the stress period, and assigned a score based on observations from several body regions (see methods). Fluoxetine treatment was continued for one more week, after which we measured the latency to begin grooming following application of a sucrose solution to the head of each animal.

[6] = 28 days via drinking water, fluoxetine 10, imipramine 20, desipramine 20, haloperidol 1 mg/kg/day, wild-type mice, vs vehicle
[7] = 28 days via drinking water, 5-HT1A knockout (−/−) mice, vs vehicle
[8] = 5-day treatment via drinking water, vs vehicle
[9] = 28 days, X-irradiated mice (3 x 5 Gy to hippocampus), vs vehicle
[10] = 28 days, sham (non-irradiated) mice, vs vehicle

CCCN(CCC)C1CCc2cccc(O)c2C1 (stereo not drawn) [8-OH-DPAT]
latency to feed in NSF (129/SvEv mice; 28 days, subcutaneous osmotic mini pumps, 1 mg/kg/day, wild type (+/+), vs sham, 1 mg/kg/day): significantly decreased the latency to feed; also recorded: significant decrease in the latency to feed
BrdU-labeled cells in the SGZ (cell proliferation) ([1]; 5-HT1A KO (−/−) mice): not observed
BrdU-labeled cells in the SGZ (cell proliferation) ([1]; 5-HT1A KO (−/−) mice, listed as DPAT): not −/− mice
latency to feed in NSF ([2]; 28 days, subcutaneous osmotic mini pumps, 1 mg/kg/day, 5-HT1A knockout (−/−), vs sham, 1 mg/kg/day): ineffective
BrdU-labeled cells in the SGZ (cell proliferation) [3]: caused an increase in cell proliferation
BrdU-labeled cells in the SGZ (cell proliferation) ([3]; listed as DPAT): DPAT-induced increases in BrdU-labeled cells

CNCCCN1c2ccccc2CCc2ccccc21 [desipramine, Desipramine]
latency to feed in NSF (129/SvEv mice; [6]): significant decreases in the latency to feed; also recorded: significantly decreased the latency to feed
time by which steady serum levels had been achieved ([4]; 129/SvEv): ≤ 5 days
latency to feed in NSF [2, 7]: still responsive; also recorded: effective

CNCCC(Oc1ccc(C(F)(F)F)cc1)c1ccccc1 (stereo not drawn) [fluoxetine, Fluoxetine]
latency to feed in NSF (129/SvEv mice; [8]): no effect
latency to feed in NSF (129/SvEv mice; [6]): significant decreases in the latency to feed
latency to feed in NSF (129/SvEv mice; 28 days via drinking water, fluoxetine 10, imipramine 20, desipramine 20, haloperidol 1 mg/kg/day, wild-type mice, vs vehicle, listed as Fluoxetine): significantly decreased the latency to feed
latency to feed in NSF (129/SvEv mice; [9]): no such anxiolytic-like effect
latency to feed in NSF (129/SvEv mice; [10]): significant reduction in the latency to feed
neurogenesis in the dentate gyrus [5]: increase neurogenesis
increase in BrdU-labeled cells in the dentate gyrus ([1]; 5-HT1A KO (−/−) mice, 27 days (4 weeks) treatment, sacrificed 24 hours after BrdU, vs vehicle): no effect; also recorded: effective only in +/+ mice
BrdU-positive cells surviving 28 days after BrdU injection ([1]; vs vehicle): not in KO
time by which steady serum levels had been achieved ([4]; 129/SvEv): ≤ 5 days
latency to feed in NSF [2, 7]: insensitive
latency to feed in NSF ([2]; 28 days via drinking water, 5-HT1A knockout (−/−) mice, vs vehicle, listed as Fluoxetine): only imipramine and desipramine were effective
cell proliferation (BrdU) ([3]; chronic fluoxetine, X-irradiated animals): no effect
cell proliferation (BrdU) in the SGZ ([3]; chronic fluoxetine, non-irradiated mice): increased cell proliferation
cell proliferation (BrdU) in the SVZ ([3]; chronic fluoxetine, subventricular zone): no effect
number of BrdU-positive cells in the DG ([3]; fluoxetine 5 days, sacrificed 24 hours after BrdU, vs vehicle): No significant effect
increase in BrdU-labeled cells in the dentate gyrus ([3]; wild type (+/+) mice, 27 days (4 weeks) treatment, sacrificed 24 hours after BrdU, vs vehicle): two-fold increase; also recorded: effective only in +/+ mice
BrdU-positive cells surviving 28 days after BrdU injection ([3]; vs vehicle): had an effect in WT
state of the coat (fur) in CUS (BALB/c mice; X-irradiated mice): absent; also recorded: Irradiation prevented the improvement of the state of the coat
state of the coat (fur) in CUS (BALB/c mice; sham mice): significantly improved the state of the fur; also recorded: significant differences between the fluoxetine-treated sham group and all the others
weight loss induced by stress in CUS (BALB/c mice; X-irradiated mice): irradiation blocked this effect
grooming latency in CUS (BALB/c mice; X-irradiated mice): X-irradiation blocked this effect
weight loss induced by stress in CUS (BALB/c mice; sham mice): trend to reverse the weight loss
grooming latency in CUS (BALB/c mice; sham mice): decreased; also recorded: decrease in the latency to groom

O=C(CCCN1CCC(O)(c2ccc(Cl)cc2)CC1)c1ccc(F)cc1 [haloperidol, Haloperidol]
latency to feed in NSF (129/SvEv mice; 28 days via drinking water, fluoxetine 10, imipramine 20, desipramine 20, haloperidol 1 mg/kg/day, wild-type mice, vs vehicle, listed as Haloperidol): ineffective

CN(C)CCCN1c2ccccc2CCc2ccccc21 [imipramine, Imipramine]
latency to feed in NSF (129/SvEv mice; [8]): no effect
latency to feed in NSF (129/SvEv mice; [6]): significant decreases in the latency to feed; also recorded: significantly decreased the latency to feed
latency to feed in NSF (129/SvEv mice; [9]): no such anxiolytic-like effect
latency to feed in NSF (129/SvEv mice; [10]): significant reduction in the latency to feed
BrdU-positive cells surviving 28 days after BrdU injection ([1]; vs vehicle): effective in both genotypes
time by which steady serum levels had been achieved ([4]; 129/SvEv): ≤ 5 days
latency to feed in NSF [2, 7]: still responsive; also recorded: effective
BrdU-positive cells surviving 28 days after BrdU injection ([3]; vs vehicle): effective in both genotypes

NCCC(Oc1ccc(C(F)(F)F)cc1)c1ccccc1 (stereo not drawn) [nor- fluoxetine]
time by which steady serum levels had been achieved [4]: ≤ 5 days
